According to patent US8569305B2, “Treatment of tuberous sclerosis associated neoplasms” (Emory University, priority 2002, dated 2013):
Entries after “also recorded” stand apart in the source; their conditions may differ.

Assays:
[1] = system: Human SV7tert angiomyolipoma cells; assay: Inhibition of proliferation of SV7tert cells by tyrosine kinase inhibitors (cell count); assay type: cell-based; conditions: for N number of living cells after 72 h treatment: Human SV7tert cells; for sensitivity / growth inhibition of SV7tert cells (in words): Human SV7tert cells in vitro; for No. of Cells after 72 hours: SV7tert cells
Excerpt: (§1) SV7tert (ATCC CRL 2461) is a cell line derived from a human angiomyolipoma through the sequential introduction of SV40 large T antigen and telomerase into primary human angiomyolipoma cells (Arbiser, J. L. et al. The generation and characterization of a cell line derived from a sporadic renal angiomyolipoma: use of telomerase to obtain stable populations of cells from benign neoplasms. Am.J.Pathol. 159, 483-491 (2001)). Angiomyolipomas are benign tumors of the kidney derived from putative perivascular epithelioid cells, that may undergo differentiation into cells with features of melanocytes, smooth muscle, and fat. Tsc2ang1 (ATCC CRL 2620) is a murine cell line derived from a cutaneous sarcoma arising in the extremity of a mouse heterozygous for tsc2. The sarcoma tissue was digested with collagenase and processed as described for SV7tert cells (Arbiser, J. L. et al.). Mice heterozygous for tsc2 develop cutaneous sarcomas at a frequency of approximately 10-15% (Onda, H., Lueck, A., Marks, P. W., Warren, H. B., & Kwiatkowski, D. J. Tsc2(+/−) mice develop tumors in multiple sites that express gelsolin and are influenced by genetic background. J.Clin Invest 104, 687-695 (1999)).
(§2) The following tyrosine kinase inhibitors were reconstituted as stock solutions in dimethyl sulfoxide (DMSO) immediately prior to use; AG9, AG17, AG18, AG30, AG82, AG99, AG112, AG370, AG490, AG879, AG957, AG1295, AG1296, AG1433, 2′thioadenosine, ST638, COMPOUND I, lavendustin C, oxindole 1, JAK3 inhibitors 1,2, and 3, as well as JAK3 inhibitor negative control. They can be obtained from Calbiochem (San Diego, Calif.). 10,000 cells per well in a 24 well dish were plated on day 1, and were treated with inhibitors in doses ranging from […] (LaMontagne Jr K. R. Jr et al. Inhibition of MAP kinase kinase causes morphological reversion and dissociation between soft agar growth and in vivo tumorigenesis in angiosarcoma cells; Am.J.Pathol. 157,1937-1945 (2000)). Cells were counted 72 hours after treatment with inhibitors using a Coulter Counter (Coulter, Hialeah,Fla.).

Murine tsc2ang1 cells = assay: Inhibition of proliferation of tsc2ang1 cells by tyrosine kinase inhibitors (cell count); assay type: cell-based; conditions: for N number of living cells after 72 h treatment: Murine tsc2ang1 cells
Excerpt: as §1, §2

[2] = system: Akt phosphorylation in SV7tert cells; assay: Akt phosphorylation in SV7tert cells after treatment; assay type: cell-based, human; conditions: after 24 hours of treatment

Compound	N number of living cells after 72 h treatment ([1]; concentration 10 μg/ml)	N number of living cells after 72 h treatment ([1]; concentration 20 μg/ml)	sensitivity / growth inhibition of SV7tert cells (in words) [1]	also measured
N#C/C(=C\c1ccc(O)c(O)c1)C(=O)O [AG30]	250 ×100	270 ×100	–	–
COC(=O)c1ccc(NCc2cc(O)ccc2O)cc1 [AG957]	–	–	highest sensitivity	inhibition ([1]; 0.5 μg/ml, data not shown, cell line not stated in the sentence (SV7tert by context)): approximately 90%
CC(C)(C)c1cc(C=C(C#N)C#N)cc(C(C)(C)C)c1O [AG17, 3,5-di-tert-butyl-4-hydroxybenzylidene-malononitrile]	23 ×100	22 ×100	highest sensitivity; also recorded: strongly inhibited	sensitivity / growth inhibition of tsc2ang1 cells (in words) (Murine tsc2ang1 cells; Murine tsc2ang1 cells in vitro): hypersensitivity; also recorded: strongly inhibited; N number of living cells after 72 h treatment (Murine tsc2ang1 cells; concentration 10 μg/ml): 23 ×100; N number of living cells after 72 h treatment (Murine tsc2ang1 cells; concentration 20 μg/ml): 23 ×100
CCOc1cc(/C=C(\C#N)C(N)=O)cc(CSc2ccccc2)c1O [ST638]	250 ×100	205 ×100	–	–
Cc1ccc(NC(=O)c2ccc(CN3CCN(C)CC3)cc2)cc1Nc1nccc(-c2cccnc2)n1 [COMPOUND I, N-{5-[4-(4-methyl-piperazino-methyl)-benzoylamido]-2-methylphenyl}-4-(3-pyridyl)-2-pyrimidine-amine]	–	–	increased sensitivity to COMPOUND I compared to murine tsc2ang1	No. of Cells after 72 hours ([1]; 2 μg/ml (control 22450)): 16500; No. of Cells after 72 hours ([1]; 5 μg/ml (control 22450)): 10000; No. of Cells after 72 hours ([1]; 10 μg/ml (control 22450)): 6500; Akt phosphorylation (in words) [2]: downregulation of Akt phosphorylation
COc1cc2ncnc(Nc3cccc(Cl)c3)c2cc1OC [AG1478]	251 ×100	210 ×100	–	–
